Experiment: Acid dissociation constant (pKa) determined by computation (ACD/Labs Software Package 1; Gaussian 16 DFT where not calculable)
Conditions: acid generated from photoacid generator B
Text: In the present specification, an acid dissociation constant (pKa) represents a pKa in an aqueous solution, and is specifically a value determined by computation from a value based on a Hammett's substituent constant and database of publicly known literature values, using the following software package 1. Any of the pKa values described in the present specification indicate values determined by computation using the software package.
Software Package 1: Advanced Chemistry Development (ACD/Labs) Software V 8.14 for Solaris (1994-2007 ACD/Labs).
As described above, the pKa in the present specification refers to a value determined by computation from a value based on a Hammett's substituent constant and database of publicly known literature values, using the software package 1, but in a case where the pKa cannot be calculated by the method, a value obtained by Gaussian 16 based on density functional theory (DFT) shall be adopted.
In addition, the pKa in the present specification refers to a “pKa in an aqueous solution” as described above, but in a case where the pKa in an aqueous solution cannot be calculated, a “pKa in a dimethyl sulfoxide (DMSO) solution” shall be adopted.
Furthermore, in the measurement of the acid dissociation constant (pKa) of an acid generated from the photoacid generator B, specifically, the pKa is a value determined by subjecting a compound formed by substituting each cationic moiety in the compounds B-1 to B-29 with […](for example, in a case of the compound B-1, a compound formed by substituting the triphenylsulfonium cation with H^+) to computation from a value based on a Hammett's substituent constant and database of publicly known literature values, using Software Package 1 of ACD/Labs, as described above. In addition, in a case where pKa could not be calculated by the method, a value obtained by Gaussian 16 based on density functional theory (DFT) was adopted.
In the following table, “pKa1” represents an acid dissociation constant of the first stage, “pKa2” represents an acid dissociation constant of the second stage, and “pKa3” represents an acid dissociation constant of the third stage. A smaller value of pKa means a higher acidity. […]

| SMILES | Difference between acid dissociation constant a1 and acid dissociation constant a2 |
| --- | --- |
| O=C(CC(F)(F)F)[N-]S(=O)(=O)C(F)(F)C(F)(F)C(F)(F)S(=O)(=O)[O-].c1ccc([S+](c2ccccc2)c2ccccc2)cc1.c1ccc([S+](c2ccccc2)c2ccccc2)cc1 [Compound B-1] | 3.17 |
| COc1ccc([S+](c2ccccc2)c2ccccc2)cc1.COc1ccc([S+](c2ccccc2)c2ccccc2)cc1.O=S(=O)([O-])C(F)(F)C(F)(F)C(F)(F)S(=O)(=O)[N-]C1CCCCC1 [Compound B-2] | 9.59 |
| O=C(O)C(F)(F)C(F)(F)C(F)(F)C(=O)OC12CC3CC(CC(COC(=O)C(F)(F)S(=O)(=O)O)(C3)C1)C2 [Compound B-3] | 2.92 |
| O=C(COC(=O)C(F)(F)S(=O)(=O)O)NC(=O)C(F)(F)F [Compound B-4] | 9.23 |
| CS(=O)(=O)[N-]C(=O)C(F)(F)C(F)(F)C(F)(F)C(=O)OCC(F)S(=O)(=O)[O-].c1ccc([S+](c2ccccc2)c2ccccc2)cc1.c1ccc([S+](c2ccccc2)c2ccccc2)cc1 (stereo not drawn) [Compound B-5] | 2.55 |
| COc1ccc([S+](c2ccccc2)c2ccccc2)cc1.COc1ccc([S+](c2ccccc2)c2ccccc2)cc1.O=C(OCCCS(=O)(=O)[O-])C(F)(F)S(=O)(=O)[O-] [Compound B-6] | 4.82 |
| CS(=O)(=O)NS(=O)(=O)CCCOC(=O)C(F)(F)S(=O)(=O)O [Compound B-11] | 3.23 |
| CCCCC(CC)C(=O)NS(=O)(=O)C(F)(F)C(F)(F)C(F)(F)S(=O)(=O)NS(=O)(=O)C(F)(F)F (stereo not drawn) [Compound B-12] | 11.4 |
| O=C([O-])CCCOC(=O)C(CS(=O)(=O)[O-])C(F)(F)F.O=S(=O)(c1ccc([S+](c2ccccc2)c2ccccc2)cc1)C1CCCCC1.O=S(=O)(c1ccc([S+](c2ccccc2)c2ccccc2)cc1)C1CCCCC1 [Compound B-14] | 3.63 |
| CC(C)(C#N)C(=O)[N-]S(=O)(=O)C(F)(F)C(F)(F)C(F)(F)S(=O)(=O)[N-]S(C)(=O)=O.Cc1ccc(-[s+]2c3ccccc3c3ccccc32)cc1.Cc1ccc(-[s+]2c3ccccc3c3ccccc32)cc1 [Compound B-15] | 2.79 |
| CC1(C)C2CCC1(CS(=O)(=O)[N-]S(=O)(=O)C(F)(F)C(F)(F)C(F)(F)S(=O)(=O)[O-])C(=O)C2.Cc1ccc([S+](c2ccccc2)c2ccccc2)cc1.Cc1ccc([S+](c2ccccc2)c2ccccc2)cc1 (stereo not drawn) [Compound B-16] | 0.74 |
| O=C(NS(=O)(=O)C(F)(F)C(F)(F)C(F)(F)S(=O)(=O)O)c1ccccc1I [Compound B-22] | 2.97 |
| CC1(OC(=O)c2cc(C(=O)NS(=O)(=O)C(F)(F)C(F)(F)C(F)(F)S(=O)(=O)NS(=O)(=O)C(F)(F)F)cc(C(=O)OC3(C)CCCC3)c2)CCCC1 [Compound B-23] | 10.13 |
| Cc1cc([S+](c2ccc(C(F)(F)F)cc2)c2ccc(C(F)(F)F)cc2)cc(C)c1OCC(=O)OC(C)(C)C.Cc1cc([S+](c2ccc(C(F)(F)F)cc2)c2ccc(C(F)(F)F)cc2)cc(C)c1OCC(=O)OC(C)(C)C.Cc1cc([S+](c2ccc(C(F)(F)F)cc2)c2ccc(C(F)(F)F)cc2)cc(C)c1OCC(=O)OC(C)(C)C.O=C([N-]S(=O)(=O)C(F)(F)C(F)(F)C(F)(F)S(=O)(=O)[O-])c1ccc(OS(=O)(=O)C(F)(F)C(F)(F)C(F)(F)S(=O)(=O)[O-])cc1 [Compound B-25] | 2.53 |
| CC(C)(C)OC(=O)c1cc(OS(=O)(=O)C(F)(F)S(=O)(=O)[O-])cc(C(=O)[N-]S(=O)(=O)C(F)(F)S(=O)(=O)[O-])c1.Cc1cc(C)cc([S+](c2cc(C)cc(C)c2)c2cc(C(F)(F)F)cc(C(F)(F)F)c2)c1.Cc1cc(C)cc([S+](c2cc(C)cc(C)c2)c2cc(C(F)(F)F)cc(C(F)(F)F)c2)c1.Cc1cc(C)cc([S+](c2cc(C)cc(C)c2)c2cc(C(F)(F)F)cc(C(F)(F)F)c2)c1 [Compound B-26] | 4.99 |

Source: US20220043347A1, “ACTINIC RAY-SENSITIVE OR RADIATION-SENSITIVE RESIN COMPOSITION, RESIST FILM, PATTERN FORMING METHOD, AND METHOD FOR MANUFACTURING ELECTRONIC DEVICE” (FUJIFILM Corporation, priority 2019, published 2022)
